Data from US20230123585A1, “COMPOSITIONS AND METHODS FOR TREATING OR PREVENTING CANCER USING DEUBIQUITINASE INHIBITORS” (The University of Chicago, priority 2020, published 2023).

Legend:
[1] = system: METTL3 / m^6A methyltransferase complex in A375 cells; assay: Immunoblot of METTL3 / m^6A methyltransferase complex protein in A375 cell lysates; format: cell-based, human
Experimental: (§1) FIGS. 6A-6H: Phosphorylation of the m^6A Methyltransferase Complex May Affect Tumorigenesis. (A) Lysates of A375 stable transfectants harvested at different time points after treatment with cycloheximide (CHX) 10 μg/ml were analyzed by immunoblot. (B) LC-MS/MS quantification of the m^6A/A ratio in mRNA of A375 stable transfectants. (C) After 8 h treatment with 10 μM PD0325901 or 0.1 μM tramentib, cell lysates from A375 cells were analyzed by immunoblot. (D) LC-MS/MS quantification of the m^6A/A ratio in mRNA of A375 cells treated with 10 μM PD0325901 or 0.1 μM tramentib for 48 h. (E) After 8hr treatment with 10 μM EOAI3402143 (EOAI) or 30 μM vialinin A , cell lysates from A375 cells were analyzed by immunoblot. (F) A375 stable transfectants as indicated were treated with 3 μM EOAI3402143 (EOAI) or 10 μM vialinin A before measuring cell viability by SRB assay. Data are presented as relative to the R-WT cells without drug treatment (n=3 per group, data represent mean±SEM). (G) Immunofluorescence analysis of METTL3 (green) in SKBR3 cells treated with 1 μM tucatinib and 1 μM lapatinib for 8 hr. DAPI (blue) was used to mark the nucleus. (H) LC-MS/MS quantification of the m^6A/A ratio in mRNA of SKBR3 and BT474 cells treated with 1 μM tucatinib and 1 μM lapatinib for 48 h. (See also FIG. 14.)
FIGS. 11A-11G: USP5 is Required for ERK-Mediated METTL3 Stabilization. (A) A375 cells transfected with HA-ubiquitin (ub) were treated with 10 μM MG-132 and MEK inhibitor PD0325901 for 8 h. The ubiquitination of METTL3 was detected by IP with anti-METTL3 and immunoblot with anti-HA. (B) After 8 h treatment with 10 μM PD0325901 with or without 10 μM MG-132, cell lysates from A375 cells were analyzed by immunoblot. (C) A375 cells were treated with various concentrations of PD0325901 for 1 h. Cell lysates were subjected to IP with METTL3 antibody followed by immunoblot. (D) 293T cells transfected as indicated were subjected to IP/immunoblot analysis. (E) Immunofluorescence analysis of myc-METTL3 (green) in mESC stable transfectants. DAPI (blue) was used to mark the nucleus. (F) Lysates of 293T cells transfected as indicated were subjected to IP with anti-Flag antibody followed by immunoblot. (G) Immunofluorescence analysis of 293T cells co-transfected with myc-METTL3 (green), Flag-USP5 (red) with or without constitutively active B-RAF.
Immunoprecipitation, immunoblotting, and in vitro kinase assay. Immunoprecipitation (IP) and immunoblotting (IB) were performed as previously described (Sun et al., 2016). In brief, protein samples were isolated from respective cells by lysis in RIPA buffer (1% Triton X-100, 150 mM NaCl, 20 mM Na2PO4, pH 7.4) containing Halt Protease and Phosphatase Inhibitor Cocktail (Thermo Scientific). Subsequently, a BCA assay (Thermo Scientific) was used to determine the protein concentrations. For IP, indicated antibody and protein A/G magnetic beads (Thermo Scientific) were incubated with lysate at 4° C. overnight followed by washing and elution with sample buffer. Equal amounts of protein were separated by SDS-PAGE followed by wet transfer to PVDF membranes. Blots were blocked with 5% non-fat milk or BSA and incubated with respective primary antibody at 4° C. overnight. Primary antibodies were detected by HRP-linked secondary antibodies (Cell Signaling) together with SuperSignal West Pico Plus chemiluminescent substrate (Thermo Scientific) and imaged in a FluorChem R system (ProteinSimple).

[2] = system: mRNA m^6A in A375 cells; assay: LC-MS/MS quantification of the m^6A/A ratio in mRNA of A375 cells; format: cell-based, human; conditions: A375 melanoma cells, 48 h, 10 μM PD0325901 or 0.1 μM trametinib
Experimental: as §1, with “(F) A375 stable transfectants as indicated were treated with 3 μM EOAI3402143 (EOAI) or 10 μM vialinin A before measuring cell viability by SRB assay. Data are presented as relative to the R-WT cells without drug treatment (n=3 per group, data represent mean±SEM). (G) Immunofluorescence analysis of METTL3 (green) in SKBR3 cells treated with 1 μM tucatinib and 1 μM lapatinib for 8 hr. DAPI (blue) was used to mark the nucleus.” left out, “(See also FIG. 14.)” left out
LC-MS/MS quantification of m^6A in poly(A) RNA. mRNA was extracted from the total RNA using 2 rounds of the Dynabeads mRNA purification kit. […] The nucleosides were quantified by using the nucleoside-to-base ion mass transitions of 282 to 150 (m^6A) and 268 to 136 (A). Quantification was carried out by comparison with a standard curve obtained from pure nucleoside. The ratio of m^6A to A was calculated based on the calibrated concentrations (Liu et al., 2018).

O=C(NOC[C@H](O)CO)c1ccc(F)c(F)c1Nc1ccc(I)cc1F [PD0325901]
degradation of METTL3 ([1]; A375 cells, 10 μM PD0325901, 8 h): increased | protein levels of the m^6A methyltransferase complex ([1]; A375 melanoma cells, 8 h, 10 μM PD0325901 or 0.1 μM trametinib): reduce | overall mRNA m^6A levels (m^6A/A ratio) [2]: reduce
